Earlier results in patent publication US20100022769A1, “NOVEL POLYNITROGENATED SYSTEMS AS ANTI-HIV AGENTS” (priority 2006, published 2010).

Columns and labels:
[1] = system: X4 strain of HIV; conditions: subject infected with a X4 strain of HIV
[2] = system: CCR5-dependent replication of HIV; conditions: virus recovered from patients who received AMD3100
[3] = development abandoned in 2001
[4] = related to its high positive charge in physiological medium
[5] = molecular target: CXCR4 (Homo sapiens, UniProt P61073); conditions: times more active than AMD3100
CXCR4, sequence (P61073 whole entry): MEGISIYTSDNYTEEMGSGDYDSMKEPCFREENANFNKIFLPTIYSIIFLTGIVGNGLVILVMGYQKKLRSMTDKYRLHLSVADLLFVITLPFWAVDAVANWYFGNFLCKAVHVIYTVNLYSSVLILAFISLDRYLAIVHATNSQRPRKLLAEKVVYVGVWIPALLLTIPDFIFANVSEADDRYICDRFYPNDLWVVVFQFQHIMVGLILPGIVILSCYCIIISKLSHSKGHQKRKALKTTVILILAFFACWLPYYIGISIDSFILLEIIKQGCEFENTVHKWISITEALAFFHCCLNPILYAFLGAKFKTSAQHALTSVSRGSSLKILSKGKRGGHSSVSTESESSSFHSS

| SMILES | reduction of the viral load [1] | inhibiting the in vivo CCR5-dependent replication of HIV [2] | cardiac toxicity [3] | oral bioavailability [4] | activity relative to AMD3100 [5] |
| --- | --- | --- | --- | --- | --- |
| c1cc(CN2CCCNCCNCCCNCC2)ccc1CN1CCCNCCNCCCNCC1 [AMD3100] | 0.8-0.9 log 10 | not effective | possible cardiac toxicity | lack of oral bioavailability |  |
| c1ccc(CNCc2ccc(CN3CCCNCCNCCCNCC3)cc2)nc1 [AMD3465] |  |  |  |  | up to 10 times |
